The source of these data is article PMC10655131 (Journal of medicinal chemistry, 2021).

SMILES strings stand for the structures.

The subject of series [1] is recombinant HIV-1 RT. Conditions: read-out: IC50 (Anti-HIV RT enzyme inhibition activity); mean ± SD, n = 3; cited from earlier work.
Series [2] concerns recombinant HIV-1 RT. Description: colorimetric Reverse Transcriptase Assay. In kind it is biochemical.
The subject of series [3] is HIV-1HXB2. The class given is cell-based. To be noted: antiviral EC50 relative to best inhibitor (NBD-14189).
The subject of series [4] is TZM-bl cells. Conditions: read-out: CC50 (cytotoxicity), XTT, three days; cited from earlier work. (Formazan colour is commonly taken as a measure of viable cells.)

For the compound `CC1(C)CC(NC(=O)C(=O)Nc2ccc(Cl)cc2)CC(C)(C)N1` [NBD-556], in series [1], the IC50 (usually the concentration that gives 50% inhibition) was > 200 µM.
As to `NC[C@@H](NC(=O)c1ccc(-c2ccc(Cl)c(F)c2)[nH]1)c1ncc(CO)s1` [NBD-14075], in series [2] (075 vs. 189 and 270), the “increase in the IC50 value” is ~ 10 fold.
With `NC[C@H](NC(=O)c1ccc(-c2ccc(C(F)(F)F)cc2)[nH]1)c1nc(CO)cs1` [NBD-14189], in series [2] (RT IC50 relative to best inhibitor (NBD-14189)), the “Fold-change from best inhibitor (IC50)” value came to 1. Besides, in series [3], the “Fold-change from best inhibitor (EC50)” value stood at 1.
As to `NC[C@@H](NC(=O)c1ccc(-c2ccc(C(F)(F)F)cn2)[nH]1)c1ncc(C(O)CO)s1` (some centres unmarked) [NBD-14306], in series [4], the CC50 (usually the concentration at which the toxic effect on the cells reaches its halfway point) was > 113 µM.
